{"source": "patent US9920295B2", "about": "“Bioreactor for isolation of rare cells and methods of use” (The Trustees of the University of Pennsylvania, priority 2012, dated 2018)", "format_in_all_cases": "cell-based, human", "key": {"BM CD34+-derived cells [1]": {"test_system": "BM CD34+-derived cells", "experiment": "Micropipette aspiration of CD34+-derived cells", "protocol": "Cells from BMCD34^+, cultured in SCF and Tpo between 3 and 8 days, were treated with 20 μM blebbistatin for 30 min to 1 h, followed by micropipette analysis. Capillary tubes of 1.0-mm inner diameter (World Precision Instruments) were pulled into micropipettes using a Flaming-Brown Micropipette Puller (Sutter Instrument) and cut further using a deFonbrune-type microforge (Vibratome). The average micropipette diameter was around 3 μm. Micropipettes were attached to a dual-stage water manometer with reservoirs of adjustable height. Suction was applied by a syringe, and the corresponding pressure was measured by pressure transducer (Validyne), calibrated by a mercury U-tube manometer. Pressures for different experiments ranged from 0.5 to 20 kPa. In some cases, cells were labeled with a very low dose (10 nM) of fluorescent BODIPY-Taxol (Invitrogen) for 1 h at 37° C. to visualize the initial stage of microtubule polymerization during micropipette aspiration."}, "CD41+ and CD41− cells": {"test_system": "CD41+ and CD41− cells", "experiment": "Label-free MS quantitation of cytoskeletal proteome", "protocol": "BM CD34^+-derived cells at day 7 were stained with CD41-FITC at room temperature for 1 h, followed by with Annexin-V-PE (BD Biosciences) in the Annexin-V staining medium for 15 min. Cells were then resuspended in 2% FBS/PBS with 7-AAD. Viable HSC-containing cell populations and differentiated MK lineages at day 7 in culture were separated on the basis of CD41 surface expression by cell sorting performed on a FACS Vantage machine (Becton Dickinson). Dead cells stained with 7-AAD and Annexin-V were excluded from sorting. Sorted cells were directly processed for mass spectrometry (MS) analyses (FIG. 5).\nSamples were prepared for mass spectrometry by gel-free (Wiśniewski et al., 2009, Nat Methods, 6:359-362) or in-gel digestion methods. […] Label-free relative peptide quantitation was performed on proportional peak fingerprints (ProPF) of proteins with in-house software coded in Mathematica (Wolfram Research). […] Proteomes from primary MKs were analyzed using this unique method and a selected group of proteins were validated by antibodies (FIG. 13D). COS cells transfected with GFP-NMM-IIA and siRNA […] knockdown were also analyzed by the method, and show increased NMM-IIA expression by 17-fold and partial knockdown (˜40%) of NMM-IIA compared with cells transfected with GFP and scrambled siRNA. There was minimal perturbation to other proteins detected."}, "[2]": {"test_system": "CD34+-derived cells (HSC, MPP, CPP)", "experiment": "HSC/P numbers on FN-coated gels of different elasticity", "conditions": "drug-treated cells", "protocol": "15-18 mm glass coverslips were treated in order with ethanol, RCA solution (1:1:3 for 15N NH4OH:30% H2O2:dH2O), methylene chloride and 0.1% allyltrichlorosilane solution. To control gel's stiffness, n,n′ methylene-bis-acrylamide and the acrylamide solution was mixed at the ratio of 0.07%:3% for soft gels (0.3 kPa), or the ratio of 0.3%:8% for stiff gels (34 kPa), final concentrations in PBS. ˜25 μl of the mixed solution was polymerized on a coverslip with 10% ammonium persulfate and n,n,n′,n′-tetramethylethylenediamine. During polymerization, gels were covered with another coverslip to obtain a uniform gel surface with the final thickness of ˜100 μm. Different concentrations of FN were then cross-linked with polymerized gels using sulfo-SANFAH (Pierce, Rockford, Ill.) by UV-crosslinking Thickness of gels and relative FN concentrations were verified by confocal microscopy. It is assumed that most FN from the solution was attached to gels (>70%). FN-coated gels were then treated with UV in PBS for at least 1 hr before use in cell culture."}, "BM CD34+-derived cells [3]": {"test_system": "BM CD34+-derived cells", "experiment": "Live cell imaging of cell division", "protocol": "At least 20,000 BM CD34^+-derived cells were put into Ibidi μ-slide VI (Ibidi GmbH) in cell culture medium. Analysis was done in an insulated chamber maintained at 37° C., 5% CO2. A series of images were collected every 5 min for 18 to ˜24 h with an Olympus IX70 inverted microscope with 300 W Xenon lamp illumination using 10× or 20× objectives under bright field. Image stacks were further analyzed by ImageJ to analyze cell division with or without blebbistatin treatment."}}}
{"smiles": "Cc1ccc2c(c1)C(=O)C1(O)CCN(c3ccccc3)C1=N2", "note": "(racemic) [blebbistatin, (±)-blebbistatin]", "values": [{"measurement": "median fragmentation threshold (effective membrane tension)", "setting": "BM CD34+-derived cells [1]; 20 μM", "result": "~1", "unit": "mN/m"}, {"measurement": "compliance, median slope of aspiration length vs tension", "setting": "BM CD34+-derived cells [1]; 20 μM, unfragmented cells", "result": "3.79±0.84 (mN/m)^−1"}, {"measurement": "increase in compliance", "setting": "BM CD34+-derived cells [1]; after 30 min", "result": "approximately four"}, {"measurement": "treated cells that fragment", "setting": "BM CD34+-derived cells [1]; after 30 min", "result": 40, "unit": "%"}, {"measurement": "detected proteins up-regulated", "setting": "CD41+ and CD41− cells; CD41+ cells, treated samples", "result": 75, "unit": "%"}, {"measurement": "indicated proteins with increased expression", "setting": "CD41+ and CD41− cells; CD41− cells, 3 d treatment", "result": 20, "unit": "%"}, {"measurement": "CPP number soft vs stiff, mean", "setting": "[2]", "result": "0.9±0.1"}, {"measurement": "MPP number soft vs stiff, mean", "setting": "[2]", "result": "1.0±0.1"}, {"measurement": "increase of HSC-to-MPP ratio with increasing FN density", "setting": "[2]", "result": "> 2", "unit": "fold"}, {"measurement": "ratio of HSC numbers soft vs stiff, mean", "setting": "[2]", "result": "1.1±0.2"}, {"measurement": "cells showing reversal of cytokinesis", "setting": "BM CD34+-derived cells [3]", "result": "~80", "unit": "%"}]}
